# Measurements published in patent US20060183778A1, “Osteogenesis-promotion enhancer and method of screening the same” (priority 2003, published 2006).
# Key:
# Type in all cases: cell-based
# [1] = system: Human mesenchymal stem cells (hMSCs); assay: Test Example 2: ALP activity of human mesenchymal stem cells; conditions: serum-free medium, compound A 1 μM with rhBMP-4 50 ng/ml
# Protocol: After the respective cells were cultured for 9 days, a degree of progression of bone differentiation was examined by staining with an alkaline phosphatase (ALP) staining kit #85-3R (Sigma). […] Quantitative analysis of an ALP activity was conducted in the same manner as in Test Example 1. Accumulation of calcium was measured through visualization by the von Kossa method. That is, the respective cells were immobilized with a phosphate buffered saline (PBS) containing 3% glutaraldehyde, and washed with PBS and with distilled water. The immobilized cells were reacted with 2.5% silver nitrate for 60 minutes while applying light, then washed, and developed with 0.5% hydroquinone for 2 minutes. Excess silver was washed away with a 5% sodium thiosulfate solution.
# [2] = system: Human mesenchymal stem cells (hMSCs); assay: Test Example 2: calcium accumulation of human mesenchymal stem cells by the von Kossa method; conditions: serum-free medium, compound A 1 μM with rhBMP-4 50 ng/ml
# Protocol: Quantitative analysis of an ALP activity was conducted in the same manner as in Test Example 1. Accumulation of calcium was measured through visualization by the von Kossa method. That is, the respective cells were immobilized with a phosphate buffered saline (PBS) containing 3% glutaraldehyde, and washed with PBS and with distilled water. The immobilized cells were reacted with 2.5% silver nitrate for 60 minutes while applying light, then washed, and developed with 0.5% hydroquinone for 2 minutes. Excess silver was washed away with a 5% sodium thiosulfate solution.
# [3] = system: C2C12 cells; assay: Test Example 4: influence of serum (FBS) concentration on ALP activity of C2C12 cells; conditions: compound A 1 μM, rhBMP-4 50 ng/ml, FBS 2.5%, 5%, 10% or 20%, 9 days
# Protocol: After the respective cells were cultured for 9 days, a degree of progression of bone differentiation was examined by staining with an alkaline phosphatase (ALP) staining kit #85-3R (Sigma). […] Regarding the respective cells, the ALP activity was measured in the same manner as in Test Example 1.
# [4] = system: C2C12 cells; assay: Test Example 1: bone differentiation of C2C12 cells, alkaline phosphatase (ALP) staining and ALP activity; conditions: 9 days
# Protocol: After the respective cells were cultured for 9 days, a degree of progression of bone differentiation was examined by staining with an alkaline phosphatase (ALP) staining kit #85-3R (Sigma). Quantitative analysis of an ALP activity was conducted according to the Fujii et al. method (e.g., see Fujii M et al, “Mol Biol Cell.” published by American Society for Cell Biology (U.S.A.), 1999, vol. 10, p. 3801-3813] by using a Sigma Fast p-nitrophenyl phosphate tablet set. A protein concentration of each extract was measured by a DC protein assay (Bio-Rad) using a bovine serum albumin as a standard substance.
smiles,measurement,setting,value
"NC(=O)c1ccc(-c2nc(-c3ccc4c(c3)OCO4)c(-c3ccccn3)[nH]2)cc1 [compound A, 4-(4-benzo[1,3]dioxol-5-yl-5-pyridin-2-yl-1H-imidazol-2-yl)benzamide]",increase in ALP activity induced with rhBMP-4,[1],further enhanced
same,calcium accumulation induced with rhBMP-4 (von Kossa staining),[2],further enhanced
same,activity to enhance the acceleration of osteogenesis (ALP staining / ALP activity) as a function of FBS concentration,[3],decreased with the increase in FBS concentration
same,activity of accelerating bone differentiation by stimulation of rhBMP-4 (ALP staining / ALP activity),"[4]; compound A 1 μM with rhBMP-4 50 ng/ml, 5% fetal bovine serum",enhanced
same,activity of accelerating bone differentiation of C2C12 cells (ALP staining),"[4]; compound A (1 μM) alone, without rhBMP-4, 5% fetal bovine serum",not observed
